Experiments:
Assay type in all cases: cell-based, mouse
[1] = tested on: MC3T3-E1 cells; assay: Global cytosine 5-hydroxymethylation (5hmC); conditions: MC3T3-E1, 3 μM, 16 hours
Description: (§1) Cells were fixed with 4% paraformaldehyde in PBS for 20 minutes at room temperature and permeabilized with 0.2% triton in 4% paraformaldehyde in PBS. Thereafter, cell layers were blocked for 20 minutes with 10% blocking reagent (Roche) and incubated for one further hour with 0.5 μg/mL anti-5hmC antibody (Abgent). Afterwards, the cells were washed thrice with PBS and incubated for one further hour with an Alexa488 labeled secondary antibody (Invitrogen) diluted 1:300 in blocking buffer. Finally, nuclei were stained with Hoechst 33258 dye (Polysciences).
(§2) For immunostaining, cell slides were mounted with VECTASHIELD® mounting media, and immunofluorescence was visualized on a Leica laser-scanning microscope. No signal was found by using only the Alexa488 labeled secondary antibody (Invitrogen). For quantification of global cytosine 5hmC, the fluorescence in the plates was measured with a multiwell plate reader (Tecan). The amount of DNA (nuclei signal) was estimated using a standard curve prepared from calf thymus DNA (Roche). The signal of the fluorescence of the 5hmC staining was normalized to the amount of DNA. Also, in this case, no signals were found when only the Alexa488 labeled secondary antibody (Invitrogen) was used.

[2] = tested on: MLO-Y4 cells; assay: Global cytosine 5-hydroxymethylation (5hmC); conditions: MLO-Y4, 3 μM, 16 hours
Description: as §1, §2

[3] = tested on: RAW 264.7 cells; assay: Global cytosine 5-hydroxymethylation (5hmC); conditions: RAW 264.7, 3 μM, 16 hours
Description: as §1, §2

[4] = tested on: neonatal calvarial explants; assay: ECM mineralization by Alizarin Red stain in calvarial explants; conditions: newborn calvarial explants, 3 μM
Description: Calvariae from 2 to 3-day-old and from 7-week old C57BL/6 mice were dissected aseptically. The calvarial bone explants were cultured in 48-well plates in α-MEM (Biochrom) containing 10% FCS (Biochrom), 50 μg/mL ascorbic acid (Sigma-Aldrich), 5 mM β-glycerophosphate (Sigma-Aldrich), and 10 μg/mL gentamicin (Sigma-Aldrich). […] Thereafter, one part of the calvariae were fixed for 1 hour in 4% para-formaldehyde (PFA), and mineralization was measured by Alizarin Red S stain (Sigma-Aldrich). For this purpose, Alizarin Red S dye was extracted using 10% cetylpyridinium chloride (CPC) in 10 mM sodiumphosphate (pH=7.0) for 45 minutes at room temperature. Alizarin Red S absorbance was measured at 562 nm in a multi-plate reader (Tecan, Maennedorf, Switzerland) and normalized to total protein amount measured by bicinchoninic acid assay (Thermo Fisher Scientific, Waltham, Mass., USA). From the other part of the calvariae, total RNA was extracted.

[5] = tested on: MC3T3-E1 cells; assay: Caspase activity (CASPASE-GLO); conditions: MC3T3-E1, 3 μM, 24 hours
Description: (§3) Caspase 3/7 and caspase 8 activities were measured by using the CASPASE-GLO® 3/7 and CASPASE-GLO® 8 assay Kit (Promega, Madison, Wis., USA) following manufactures instructions. Briefly, after treatments, cells were lysed, and substrate cleavage by caspases was measured by the generated luminescent signal with a 96 multi-well luminometer (Glomax, Promega). Each experiment was performed in quintuplicate and experiments were carried out twice.

[6] = tested on: MLO-Y4 cells; assay: Caspase activity (CASPASE-GLO); conditions: MLO-Y4, 3 μM, 24 hours
Description: as §3

[7] = tested on: RAW 264.7 cells; assay: Caspase activity (CASPASE-GLO); conditions: RAW 264.7, 3 μM, 24 hours
Description: as §3

[8] = tested on: MC3T3-E1 cells; assay: ECM mineralization by Alizarin Red stain; conditions: MC3T3-E1, long-term treatment in osteogenic media
Description: Differentiation of MC3T3-E1 cells was induced with 50 μg/mL ascorbic acid (Sigma-Aldrich) and 5 mM β-glycerophosphate (Sigma-Aldrich) in medium containing 5% FBS. RAW 264.7 cells were cultured in Dulbecco's modified Eagle's medium (DMEM, Invitrogen, Carlsbad, Calif., USA) supplemented with 10% fetal bovine serum (Hyclone) and 2 mM glutamine (Gibco, Carlsbad, Calif., USA). Cells were seeded in culture dishes at a density of 20,000 cells/cm^2 and cultured overnight unless stated otherwise. Before cells were treated with compounds, the culture medium was changed.
Calvariae from 2 to 3-day-old and from 7-week old C57BL/6 mice were dissected aseptically. The calvarial bone explants were cultured in 48-well plates in α-MEM (Biochrom) containing 10% FCS (Biochrom), 50 μg/mL ascorbic acid (Sigma-Aldrich), 5 mM β-glycerophosphate (Sigma-Aldrich), and 10 μg/mL gentamicin (Sigma-Aldrich). The day after dissection, medium was changed, and a part of the explants was treated with 3 μM L- or DL-SFN for 12 days. Thereafter, one part of the calvariae were fixed for 1 hour in 4% para-formaldehyde (PFA), and mineralization was measured by Alizarin Red S stain (Sigma-Aldrich). For this purpose, Alizarin Red S dye was extracted using 10% cetylpyridinium chloride (CPC) in 10 mM sodiumphosphate (pH=7.0) for 45 minutes at room temperature. Alizarin Red S absorbance was measured at 562 nm in a multi-plate reader (Tecan, Maennedorf, Switzerland) and normalized to total protein amount measured by bicinchoninic acid assay (Thermo Fisher Scientific, Waltham, Mass., USA). From the other part of the calvariae, total RNA was extracted.

[9] = tested on: MC3T3-E1 cells; assay: Cell metabolic activity (EZ4U, MTT similar assay); conditions: 24 hours of treatment, read-out: half-maximal effective concentration (EC50), cell metabolic activity
Description: (§4) To assess cell metabolic activity, a commercially available, MTT similar assay (EZ4U; Biomedica, Vienna, Austria) was used. For this purpose, the cell lines were incubated with increasing concentrations of L- or DL-SFN.

[10] = tested on: MLO-Y4 cells; assay: Cell metabolic activity (EZ4U, MTT similar assay); conditions: 24 hours of treatment, read-out: half-maximal effective concentration (EC50), cell metabolic activity
Description: as §4

[11] = tested on: RAW 264.7 cells; assay: Cell metabolic activity (EZ4U, MTT similar assay); conditions: read-out: half-maximal effective concentration (EC50), cell metabolic activity
Description: as §4

[12] = tested on: BMSCs; assay: ECM mineralization by Alizarin Red stain; conditions: long-term treatment in osteogenic media
Description: Mouse bone marrow mesenchymal stem cells were isolated from aseptically dissected long bones of 6-week old C57BL/6 mice (Himberg, Austria). The marrow cavities were flushed with sterile medium using a 25-gauge needle, and the culture was established in α-MEM supplemented with 10% FCS and […]. After 48 hours of culture at 5% CO2 and 37° C., the non-adherent cells were removed by gentle rinsing with PBS. At confluence, cells were harvested and seeded at a density of 3,000/cm^2 for cell experiments. For osteogenic differentiation, cells were cultured in α-MEM supplemented with 10% FBS, […], 100 nM dexamethasone, 10 mM β-glycerophosphate, and 50 μg/mL ascorbic acid with or without L- or DL-SFN. Culture medium was renewed twice a week, and cells were cultured for the periods indicated in the result section.
Calvariae from 2 to 3-day-old and from 7-week old C57BL/6 mice were dissected aseptically. […] Thereafter, one part of the calvariae were fixed for 1 hour in 4% para-formaldehyde (PFA), and mineralization was measured by Alizarin Red S stain (Sigma-Aldrich). […] Alizarin Red S absorbance was measured at 562 nm in a multi-plate reader (Tecan, Maennedorf, Switzerland) and normalized to total protein amount measured by bicinchoninic acid assay (Thermo Fisher Scientific, Waltham, Mass., USA). […]

SMILES	global 5hmC [1]	5hmC levels [2]	increase of global levels of 5hmC [3]	ECM mineralization [4]	activities of the caspases 3/7 [5]	activity of caspase 8 [5]	activities of the caspases 3/7 [6]	activity of caspase 8 [6]	Caspase 8 and Caspase 3/7 activity [7]	ECM mineralization [8]	EC50 [9]	EC50 [10]	EC50 [11]	ECM mineralization [12]
C[S+]([O-])CCCCN=C=S (racemic) [DL-SFN]	significant global increase	did not elevate	~3 fold	significantly increased	significant increase	significantly increased	significant increase	significantly increased	stimulated	significantly increased	~13 µM	~6 µM	~6.01 µM	significantly increased
C[S+]([O-])CCCCN=C=S [L-SFN]	significant global increase	did not elevate	< 2 fold	significantly increased		significantly increased		significantly increased	stimulated	significantly increased	~48 µM	~11 µM	~10.1 µM	significantly increased
